Test results from publication PMC2846816 (Arthritis and rheumatism, 2009).
Counter-ions that a name gives are not always drawn. Like-named read-outs stand apart in the source and are kept apart here.

What was measured:
Assay in all cases: Fura-2 Ca2+ influx
Assay type in all cases: cell-based
TRPV4 [1] = biological target: T1, TRPV4 (Sus scrofa, UniProt B3VP30)
TRPV4 [2] = biological target: T1, TRPV4; remark: listed apart in the source
TRPV4 [3] = biological target: T1, TRPV4; remark: listed apart in the source

T1 sequence (B3VP30 1-871): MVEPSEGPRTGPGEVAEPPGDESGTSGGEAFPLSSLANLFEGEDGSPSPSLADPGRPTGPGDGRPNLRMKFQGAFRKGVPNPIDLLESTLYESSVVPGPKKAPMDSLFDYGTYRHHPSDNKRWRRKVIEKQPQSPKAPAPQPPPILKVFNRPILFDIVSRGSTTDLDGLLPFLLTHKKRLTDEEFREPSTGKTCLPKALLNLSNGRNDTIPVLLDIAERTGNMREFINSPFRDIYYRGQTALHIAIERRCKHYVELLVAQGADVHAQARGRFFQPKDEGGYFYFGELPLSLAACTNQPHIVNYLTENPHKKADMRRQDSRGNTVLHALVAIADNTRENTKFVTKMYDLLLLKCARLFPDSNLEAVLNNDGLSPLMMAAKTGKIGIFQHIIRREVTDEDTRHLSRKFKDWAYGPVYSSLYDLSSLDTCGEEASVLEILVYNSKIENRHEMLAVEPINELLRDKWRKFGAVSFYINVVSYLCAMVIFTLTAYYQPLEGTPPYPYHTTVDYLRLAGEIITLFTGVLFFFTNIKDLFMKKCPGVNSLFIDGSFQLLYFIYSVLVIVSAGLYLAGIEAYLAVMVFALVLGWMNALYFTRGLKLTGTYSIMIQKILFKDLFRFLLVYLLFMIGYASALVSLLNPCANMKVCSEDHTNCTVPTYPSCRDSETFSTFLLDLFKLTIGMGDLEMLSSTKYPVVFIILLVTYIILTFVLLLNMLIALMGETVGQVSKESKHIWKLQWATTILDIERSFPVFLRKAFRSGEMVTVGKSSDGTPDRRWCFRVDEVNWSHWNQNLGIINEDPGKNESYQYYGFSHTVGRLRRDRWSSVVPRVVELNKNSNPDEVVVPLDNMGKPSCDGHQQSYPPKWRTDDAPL

Cl.Cl.Cl.Cl.Cl.Cl.N.N.N.N.N.N.N.N.N.N.N.N.N.N.[O-2].[O-2].[Ru+3].[Ru+3].[Ru+4] [Ruthenium Red]
IC50 (TRPV4 [1]): ~0.005 µM

CCCCCCCCCC(=O)O[C@@H]1[C@@H](C)[C@@]2(O)[C@@H](C=C(CO)C[C@@]3(O)C(=O)C(C)=C[C@@H]23)[C@@H]2C(C)(C)[C@]12OC(=O)CCCCCCCCC [4αPDD]
EC50 (TRPV4 [2]): ~2 µM

CN(CCc1ccc(Nc2ncc(-c3cccnc3)s2)cc1)Cc1ccccc1 [GSK205, N-(4-{2 [methyl(phenylmethyl)amino]ethyl}phenyl)-5-(3-pyridinyl)-1,3-thiazol-2-amine hydrobromide]
IC50 (TRPV4 [3]): ~0.6 µM
